Experimental data published in patent publication US7989464B2, “mGluR1 antagonists as therapeutic agents” (Schering Corporation, priority 2004, dated 2011).
Like-named read-outs stand apart in the source and are kept apart here.

Molecular target: T1, hmGluR1 receptor (Homo sapiens, UniProt Q13255)
T1 construct: expressed in transfected cells
Test: IC50 determination: intracellular calcium mobilization (FLIPR) upon Quisqualate stimulation in CHO cells stably expressing hmGluR1
Assay type: cell-based
Details: against Quisqualate 1 μM (EC80)
Method in brief: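 CHO cells stably expressing hmGluR1 were kept overnight in DMEM high glucose with GPT and 1 mM pyruvate, then loaded 2 h with Calcium 3 dye.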

[1] = class symbols, read-out: mGIuR 1 IC50
[2] = FLIPR calcium mobilization, read-out: IC50 Class
[3] = FLIPR calcium mobilization, read-out: mGluR1 IC50

T1 sequence (Q13255 19-1194): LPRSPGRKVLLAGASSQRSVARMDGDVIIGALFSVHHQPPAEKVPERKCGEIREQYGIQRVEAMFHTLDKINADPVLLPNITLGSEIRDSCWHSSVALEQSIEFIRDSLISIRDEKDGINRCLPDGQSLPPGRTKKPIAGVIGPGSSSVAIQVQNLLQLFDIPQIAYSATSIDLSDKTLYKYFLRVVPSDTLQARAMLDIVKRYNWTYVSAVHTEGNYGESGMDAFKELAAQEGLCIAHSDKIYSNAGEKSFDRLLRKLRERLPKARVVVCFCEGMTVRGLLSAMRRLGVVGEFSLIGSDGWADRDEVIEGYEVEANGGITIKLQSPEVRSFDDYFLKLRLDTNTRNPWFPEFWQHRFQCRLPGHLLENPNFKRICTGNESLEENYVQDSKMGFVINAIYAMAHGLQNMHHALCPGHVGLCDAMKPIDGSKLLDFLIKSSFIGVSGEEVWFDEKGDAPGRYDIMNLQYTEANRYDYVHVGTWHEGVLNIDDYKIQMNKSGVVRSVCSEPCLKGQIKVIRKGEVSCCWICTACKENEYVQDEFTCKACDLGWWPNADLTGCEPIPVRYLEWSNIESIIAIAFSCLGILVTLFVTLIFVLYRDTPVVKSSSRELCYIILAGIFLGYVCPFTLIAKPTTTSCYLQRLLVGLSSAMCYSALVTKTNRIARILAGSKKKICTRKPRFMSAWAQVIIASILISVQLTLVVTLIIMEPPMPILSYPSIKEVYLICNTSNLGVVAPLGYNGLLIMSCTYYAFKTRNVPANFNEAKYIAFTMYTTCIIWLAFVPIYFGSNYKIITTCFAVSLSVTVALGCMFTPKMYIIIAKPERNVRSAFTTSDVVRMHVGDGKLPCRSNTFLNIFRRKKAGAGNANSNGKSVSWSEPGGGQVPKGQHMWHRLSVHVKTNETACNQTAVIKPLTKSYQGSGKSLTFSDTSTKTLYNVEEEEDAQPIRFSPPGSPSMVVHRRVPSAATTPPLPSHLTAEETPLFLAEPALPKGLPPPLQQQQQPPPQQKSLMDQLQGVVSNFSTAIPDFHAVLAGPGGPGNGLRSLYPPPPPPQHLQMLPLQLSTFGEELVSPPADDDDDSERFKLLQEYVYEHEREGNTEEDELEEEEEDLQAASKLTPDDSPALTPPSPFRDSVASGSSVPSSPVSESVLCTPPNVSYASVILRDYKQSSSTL

Row | IC50 [1] [nM] | IC50 [2] [nM] | IC50 [3] [nM] | SMILES
1 | 150 to 1000 |  |  | CCOc1ccc(-n2cnc3c(sc4nccc(N(C)C)c43)c2=O)cc1 [7AE]
2 | < 50 |  |  | CCc1ccc(-n2cnc3c(sc4nccc(NC)c43)c2=O)cc1 [7CC]
3 | 150 to 1000 |  |  | Cc1nc2c(sc3nccc(NC4CC4)c32)c(=O)n1-c1ccccc1 [113C]
4 |  | 50 to 150 |  | CC(CO)Nc1ccnc2sc3c(=O)n(-c4ccc(Br)cc4)cnc3c12 (stereo not drawn) [28HC]
5 | 50 to 150 |  |  | Cc1ccc(-n2cnc3c(sc4cccc(N(C)C)c43)c2=O)cc1 [103D]
6 |  | < 50 |  | O=c1c2sc3nccc(NCCCCO)c3c2ncn1-c1ccc(Br)cc1 [28GV]
7 | > 1000 |  |  | COC(=O)c1sccc1-n1cnc2c(sc3nccc(N(C)C)c32)c1=O [7AU]
8 | 50 to 150 |  |  | CN(C)c1ccnc2sc3c(=O)n(-c4ccc5nc[nH]c5c4)cnc3c12 [7AW]
9 |  | 50 to 150 |  | C=CCc1ccnc2sc3c(=O)n(-c4ccc(Cl)cc4)cnc3c12 [178A]
10 |  | < 50 |  | CN(CCO)c1ccnc2sc3c(=O)n(-c4ccc(Cl)cc4)cnc3c12 [28HG]
11 |  | 150 to 1000 |  | C=C(OCC)c1ccnc2sc3c(=O)n(-c4ccc(Cl)cc4)cnc3c12 [183A]
12 |  | 150 to 1000 |  | Cc1ccc(-n2cnc3c(sc4ncnc(NC5CCC5)c43)c2=O)cc1 [95DH]
13 |  | 150 to 1000 |  | Cc1ccc(-n2cnc3c(sc4nc(C5CC5)nc(N)c43)c2=O)cc1 [71D]
14 | < 50 |  |  | Cc1cc(N(C)C)c2c(n1)sc1c(=O)n(-c3ccc(Cl)cc3)cnc12 [7CM]
15 | < 50 |  | 1.27 | CNc1ccnc2sc3c(=O)n(-c4ccc(C)cc4)cnc3c12 [28AI]
16 | 150 to 1000 |  |  | CN(C)c1ccnc2sc3c(=O)n(-c4ccc5c(c4)OCCCO5)cnc3c12 [7CH]
17 | 150 to 1000 |  |  | O=c1c2sc3nccc(NC4CCC4)c3c2ncn1C1CCCCC1 [28W]
18 |  | < 50 |  | CC(O)CCNc1ccnc2sc3c(=O)n(-c4ccc(F)cc4)cnc3c12 (stereo not drawn) [28HN]
19 |  | < 50 |  | COc1ccc(-n2cnc3c(sc4ncc(Cl)c(N(C)C)c43)c2=O)cc1 [compound 197]
20 |  | < 50 |  | C=C(C)CNc1ncnc2sc3c(=O)n(-c4ccc5c(c4)OCCO5)cnc3c12 [95FF]
21 | > 1000 |  |  | O=c1c2sc3nccc(OS(=O)(=O)C(F)(F)F)c3c2ncn1C1CCCCC1 [27A]
22 |  | > 1000 |  | CN(C)c1cccc2sc3c(=O)n(-c4ccccc4F)cnc3c12 [103L]
23 |  | > 1000 |  | O=c1c2sc3ncnc(Nc4ccccc4)c3c2ncn1-c1ccc2scnc2c1 [95GE]
24 |  | < 50 |  | CN(CCO)c1ccnc2sc3c(=O)n(-c4ccc(Br)cc4)cnc3c12 [28HI]

Row | IC50 [1] [nM] | IC50 [2] [nM] | IC50 [3] [nM] | SMILES
25 | < 50 |  |  | CNc1ccnc2sc3c(=O)n(-c4ccc5c(c4)OCO5)cnc3c12 [7CB]
26 | > 1000 |  |  | CN(C)c1c(-c2ccc(F)cc2)cnc2sc3c(=O)n(C4CCCCC4)cnc3c12 [47B]
27 |  | < 50 | 1.94 | CN(c1ncnc2sc3c(=O)n(-c4ccc(Br)cc4)cnc3c12)C1CC1 [95DV]
28 |  | < 50 |  | O=c1c2sc3nccc(NC4CC4)c3c2ncn1-c1cccc(F)c1 [28CN]
29 |  | < 50 |  | CCN(C)c1ccnc2sc3c(=O)n(-c4cccc(Cl)c4)cnc3c12 [28CA]
30 | > 1000 |  |  | O=c1c2sc3nccc(NCCc4ccccc4)c3c2ncn1C1CCCCC1 [72F]
31 |  | < 50 |  | C#CCN(C)c1ccnc2sc3c(=O)n(-c4ccc(Cl)cc4)cnc3c12 [28DX]
32 | > 1000 |  |  | CN(C)c1cncc2sc3c(=O)n(-c4ccc(O)cc4)cnc3c12 [37H]
33 | < 50 |  |  | COc1ccc(-n2c(C)nc3c(sc4nccc(N(C)C)c43)c2=O)cc1 [116D]
34 |  | > 1000 |  | COc1ccnc2sc3c(=O)n(-c4ccncc4)cnc3c12 [161C]
35 |  | < 50 |  | O=c1c2sc3ncnc(NC4CC4)c3c2ncn1-c1ccc2occc2c1 [95AV]
36 |  | < 50 |  | O=c1c2sc3nccc(NC4CC4)c3c2ncn1-c1ccc(Cl)cc1 [28HF]
37 |  | 50 to 150 |  | C=C(C)CNc1ncnc2sc3c(=O)n(-c4ccc(OC)c(F)c4)cnc3c12 [95FB]
38 | < 50 |  | 1.47 | C#CCNc1ccnc2sc3c(=O)n(-c4ccc(C)cc4)cnc3c12 [28Z]
39 |  | < 50 |  | COc1c(Br)cnc2sc3c(=O)n(-c4ccc(Cl)cc4)cnc3c12 [28EH]
40 |  | < 50 |  | C=C(C)CNc1ccnc2sc3c(=O)n(-c4ccc(Cl)cc4)cnc3c12 [28FD]
41 |  | 150 to 1000 |  | O=c1c2sc3nccc(Nc4ccccc4)c3c2ncn1-c1ccc(Cl)cc1 [190C]
42 |  | < 50 |  | COCCNc1ccnc2sc3c(=O)n(-c4ccc(Cl)cc4)cnc3c12 [28GK]
43 | < 50 |  | 0.35 | CN(C)c1ccnc2sc3c(=O)n(C4CCCCC4)cnc3c12 [7Q]
44 | > 1000 |  |  | COc1ccc(-n2cnc3c(sc4ncc(Br)c(N(C)C)c43)c2=O)cc1Br [compound 149]
45 |  | < 50 |  | CCNc1ccnc2sc3c(=O)n(-c4ccc5c(c4)OCCO5)cnc3c12 [28BY]
46 | > 1000 |  |  | COc1ccc2nc(-n3cnc4c(sc5nccc(N(C)C)c54)c3=O)sc2c1 [7BP]
47 | < 50 |  |  | CNc1ccnc2sc3c(=O)n(-c4ccc5ncsc5c4)cnc3c12 [7BZ]
48 |  | 150 to 1000 |  | COc1ccc(-n2cnc3c(sc4nccc(Nc5ccccn5)c43)c2=O)cc1 [28FO]

Row | IC50 [1] [nM] | IC50 [2] [nM] | IC50 [3] [nM] | SMILES
49 | > 1000 |  |  | CN(C)c1ccnc2sc3c(=O)n(NC(=O)C4CCC4)c(C4CCC4)nc3c12 [65D]
50 |  | 150 to 1000 |  | C=CCNc1nncc2sc3c(=O)n(-c4ccc(C)cc4)cnc3c12 [167C]
51 |  | 50 to 150 |  | COc1ccc(Nc2ncnc3sc4c(=O)n(-c5ccc(OC)cc5)cnc4c23)cc1 [190B]
52 |  | 150 to 1000 |  | COc1ccc(Nc2ccnc3sc4c(=O)n(-c5ccc(OC)cc5)cnc4c23)cc1 [28FP]
53 | > 1000 |  |  | Cc1nc2cc(-n3cnc4c(sc5nccc(N(C)C)c54)c3=O)ccc2o1 [7BU]
54 |  | > 1000 |  | Cc1ccc(-n2cnc3c(sc4nccc(NCC(C)(C)C)c43)c2=O)cc1 [28ES]
55 | 150 to 1000 |  |  | CN(C)c1cncc2sc3c(=O)n(C4CCCCC4)cnc3c12 [37A]
56 | > 1000 |  |  | O=c1c2sc3nccc(N4CCNCC4)c3c2ncn1C1CCCCC1 [28U]
57 | 150 to 1000 |  |  | COc1ccc(-n2c(C(F)(F)F)nc3c(sc4nccc(N(C)C)c43)c2=O)cc1 [117B]
58 | < 50 |  |  | CCN(C)c1ccnc2sc3c(=O)n(-c4ccc(OC)cc4)cnc3c12 [7CE]
59 |  | > 1000 |  | Cc1ccc(-n2cnc3c(sc4nccc(N5CC[C@@H](O)C5)c43)c2=O)cc1 [28CV]
60 |  | > 1000 |  | CN(C)c1ccnc2sc3c(=O)n(C4CCCC(C(=O)O)C4)cnc3c12 (stereo not drawn) [28EJ]
61 | < 50 |  |  | COc1ccc(-n2cnc3c(sc4nccc(N(C)C)c43)c2=O)cn1 [7BW]
62 |  | < 50 |  | COCCCNc1ccnc2sc3c(=O)n(-c4ccc(C)cc4)cnc3c12 [28CZ]
63 |  | < 50 |  | O=c1c2sc3nccc(NC4CC4)c3c2ncn1-c1ccc2scnc2c1 [131J]
64 | < 50 |  |  | CN(C)c1ccnc2sc3c(=O)n(-c4ccc5scnc5c4)cnc3c12 [7CR]
65 |  | 50 to 150 |  | CCNc1ccnc2sc3c(=O)n(-c4ccc(OC)cc4F)cnc3c12 [28BJ]
66 | < 50 |  |  | Cc1ccc(-n2cnc3c(sc4nccc(NC5CC5)c43)c2=O)cc1 [28AP]
67 | 150 to 1000 |  |  | COc1ccc(-n2cnc3c(sc4nccc(Nc5ccccc5)c43)c2=O)cc1 [28G]
68 | 150 to 1000 |  |  | CN(C)c1ccnc2sc3c(=O)n(Cc4ccsc4)cnc3c12 [15V]
69 |  | < 50 |  | CNc1ncnc2sc3c(=O)n(-c4ccc(F)cc4)cnc3c12 [95DC]
70 |  | < 50 |  | CN(C)c1c(Cl)cnc2sc3c(=O)n(-c4ccc(Cl)cc4)cnc3c12 [compound 199]
71 | < 50 |  |  | CN(C)c1ccnc2sc3c(=O)n(-c4ccc5c(c4)NC(=O)CO5)cnc3c12 [7BO]
72 |  | > 1000 |  | CCOC(=O)C1CCCC(n2cnc3c(sc4nccc(OC)c43)c2=O)C1 (stereo not drawn) [28EK]

Row | IC50 [1] [nM] | IC50 [2] [nM] | IC50 [3] [nM] | SMILES
73 |  | < 50 |  | Cc1ccc(-n2cnc3c(sc4ncnc(NCCCCO)c43)c2=O)cc1 [95DN]
74 |  | < 50 |  | C=C(C)CNc1ccnc2sc3c(=O)n(-c4ccc(Br)cc4)cnc3c12 [28FC]
75 | 150 to 1000 |  |  | CN(C)c1cncc2sc3c(=O)n(-c4ccccc4)cnc3c12 [37D]
76 | > 1000 |  |  | CN(C)c1ccnc2c1c1ncn(-c3ccc(OC(F)F)cc3)c(=O)c1n2C [134D]
77 |  | 150 to 1000 |  | CC(=O)NN(C)c1ccnc2sc3c(=O)n(-c4ccc(C)cc4)cnc3c12 [73I]
78 | 150 to 1000 |  |  | Cc1ccc(-n2cnc3c(sc4nc(-c5cccs5)cc(C(F)(F)F)c43)c2=O)cc1 [P-13]
79 |  | < 50 | 0.18 | CNc1ccnc2sc3c(=O)n(-c4ccc(Cl)cc4)cnc3c12 [compound 193]
80 | > 1000 |  |  | O=c1c2sc3nccc(N4CC[C@@H](O)C4)c3c2ncn1C1CCCCC1 [28M]
81 | 50 to 150 |  |  | CNc1c(Cl)cnc2sc3c(=O)n(C4CCCCC4)cnc3c12 [compound 42]
82 |  | 50 to 150 |  | COc1ccc(-n2cnc3c(sc4nc(Cl)cc(N)c43)c2=O)cc1 [59I]
83 |  | > 1000 |  | COCCNc1nncc2sc3c(=O)n(-c4ccc(C)cc4)cnc3c12 [167D]
84 |  | < 50 |  | C=C(C)CNc1ncnc2sc3c(=O)n(-c4ccc(Cl)cc4)cnc3c12 [95EZ]
85 | < 50 |  |  | CN(C)c1ccnc2sc3c(=O)n(-c4cccc(O)c4)cnc3c12 [7AV]
86 | 150 to 1000 |  |  | COc1ccc(-c2c(C(C)=O)c(C)nc3sc4c(=O)n(-c5ccc(C)cc5)cnc4c23)cc1 [P-10]
87 |  | < 50 |  | CN(c1ncnc2sc3c(=O)n(-c4ccc(Cl)cc4)cnc3c12)C1CC1 [95DU]
88 | 50 to 150 |  |  | CN(C)c1ccnc2sc3c(=O)n(-c4ccccc4Cl)cnc3c12 [7F]
89 | 150 to 1000 |  |  | COc1ccccc1-n1cnc2c(sc3nc(N4CCOCC4)c4c(c32)CC(C)(C)OC4)c1=O [P-5]
90 |  | < 50 |  | CNc1ccnc2sc3c(=O)n(-c4cccc(F)c4)cnc3c12 [28CO]
91 |  | < 50 |  | C=CCNc1ccnc2sc3c(=O)n(-c4ccc(Br)cc4)cnc3c12 [28DR]
92 | 150 to 1000 |  |  | CCCCNc1ccnc2sc3c(=O)n(C4CCCCC4)cnc3c12 [28R]
93 | 150 to 1000 |  |  | CCNc1ncnc2sc3c(=O)n(-c4ccc(C)nc4)cnc3c12 [95AB]
94 |  | < 50 | 0.91 | C#CCNc1ccnc2sc3c(=O)n(-c4ccc(Cl)cc4)cnc3c12 [28DL]
95 |  | 150 to 1000 |  | C#CC(CC)(CC)Nc1ccnc2sc3c(=O)n(-c4ccc(C)cc4)cnc3c12 [28EU]
96 | 50 to 150 |  |  | Cc1ccccc1-n1cnc2c(sc3nccc(N(C)C)c32)c1=O [7CW]
